This is an account of results in ChEMBL document CHEMBL1151362, “Catharanthus alkaloids. XXXIV. Catharanthamine, a new antitumor bisindole alkaloid from Catharanthus roseus” (1981).

As a reminder, the T/C is the ratio of treated to control.

One experiment relates to P388. Nature of the experiment: In vivo antitumor activity against mouse P388 cells at 1 mg/kg relative to control. The format is functional.
The test system of another experiment is KB. Nature of the experiment: Cytotoxicity against human KB cells. The class given is functional, cell-based.

Calls of active or inactive are those of the source. The calls are words filed in the database; no cut-off is given here.

As for `CC[C@]12C[C@H]3CN(CCc4c([nH]c5ccccc45)[C@@](C(=O)OC)(c4cc5c(cc4OC)N(C)[C@H]4[C@@](O)(C(=O)OC)[C@H](OC(C)=O)[C@]6(CC)C=CCN7CC[C@]54[C@@H]76)[C@@H]3O1)C2` [CATHARANTHAMINE], in the experiment on P388, the T/C is 176%. For the same molecule, the outcome in the experiment with KB was Active.
